Read-outs that look alike come from different tables or passages of the source.
Columns and labels:
Assay type in all cases: cell-based
[1] = system: Streptococcus suis 701; assay: Individual tests, microdilution MIC
Method: (§1) Strains were stored at −80° C. in appropriate media with glycerol, thawed and cultured according to conventional practices.
(§2) The ABs shown in Tables 2 and 3 below, all obtained from Aplha Aesar, were tested. The OAs used are shown in Tables 2 and 3 below, all obtained from Merck. The stock solutions were prepared appropriately and in appropriate way and media for the different strains and could contain 3.5% ethanol to increase solubility.
(§3) The tests were conducted using the microdilution method in a 96-well plate to be microtitered with the medium and culture conditions appropriate for the strains. Bacterial strains (10^5-10^6 CFU/ml) were incubated with the compounds to be tested, while control strains, when necessary, were grown in media containing 3.5% ethanol to exclude an inhibitory effect of any ethanol present in the stock solutions. After incubation, MIC was defined as the lowest concentration resulting in zero absorbance at 630 nm, recorded with Varioskan® LUX Multimode Microplat Reader (Thermo Fisher Scientific). For each test, the percentage of inhibition (%) was calculated with respect to the relative control.
(§4) ABs were tested in the range 64-0.13 ppm, OAs in the range […] and NICs in the range 7.5-0.06 nM.

[2] = system: Escherichia Coli K88 95; assay: Individual tests, microdilution MIC; conditions: for MIC: Escherichia coli
Method: as §1, §2, §3, §4

[3] = system: Escherichia coli K88 97; assay: Individual tests, microdilution MIC; conditions: for MIC: Escherichia coli
Method: as §1, §2, §3, §4

[4] = system: Streptococcus suis 702; assay: Individual tests, microdilution MIC
Method: as §1, §2, §3, §4

[5] = system: Streptococcus suis 701; assay: Combination test, checkerboard, % inhibition; conditions: S. suis 701
Method: as §1, §3
(§5) After phase 1, the strains were tested with associations at sub-effective doses of AB and OA or NIC in a 2×2 checkerboard model. Specifically, two sub-effective doses of AB were associated with two sub-effective doses of OA or NIC (half and one-quarter of MICs) as shown in FIG. 1.
(§6) The % indicate the percentage of inhibition (compounds alone and combinations).
(§7) Tables 4 to 7 show the % of inhibition of the components of the associations alone, at the effective concentrations shown in Tables 2 and 3, and at the sub-effective concentrations (half and one-quarter of MICs), and the % of inhibition of the associations.

[6] = system: Escherichia Coli K88 95; assay: Combination test, checkerboard, % inhibition; conditions: E. coli 95
Method: as §1, §3, §5, §6, §7

[7] = system: Escherichia coli K88 97; assay: Combination test, checkerboard, % inhibition; conditions: E. coli 97
Method: as §1, §3, §5, §6, §7

[8] = system: Streptococcus suis 702; assay: Combination test, checkerboard, % inhibition; conditions: S. suis 702
Method: as §1, §3, §5, §6, §7

[9] = Streptococcus suis, S. suis 701, read-out: MIC values
[10] = COLIK8895, E. coli 95, read-out: MIC values
[11] = K8897, E. coli 97, read-out: MIC values
[12] = Streptococcus suis, S. suis 702, read-out: MIC values
[13] = COLIK8895, read-out: MIC values

CC1(C)S[C@@H]2[C@H](NC(=O)[C@H](N)c3ccc(O)cc3)C(=O)N2[C@H]1C(=O)O [Amoxicillin]
MIC [1, 9]: 0.5 µg/mL
MIC [2, 10]: > 64 µg/mL
MIC [3, 11]: > 64 µg/mL
MIC [4, 12]: 0.5 µg/mL

CC1(C)S[C@@H]2[C@H](NC(=O)[C@H](N)c3ccccc3)C(=O)N2[C@H]1C(=O)O [Ampicillin]
MIC [1, 9]: 0.25 µg/mL
MIC [4, 12]: 0.25 µg/mL

O=C(O)c1ccccc1 [Benzoic Acid, benzoic acid]
MIC ([1]; Streptococcus suis, 701, read-out: MIC values): 50 mM
MIC [2, 13]: 50 mM
MIC ([3]; K8897, read-out: MIC values): 50 mM
MIC ([4]; Streptococcus suis, 702, read-out: MIC values): 25 mM
% inhibition ([5]; BEN 12.5 mM alone): 22%
% inhibition ([5]; BEN 25 mM alone): 51%
% inhibition ([6]; BEN 12.5 mM alone): 63%
% inhibition ([6]; BEN 25 mM alone): 90%
% inhibition ([7]; BEN 12.5 mM alone): 79%
% inhibition ([7]; BEN 25 mM alone): 97%
% inhibition ([8]; BEN 6.25 mM alone): 21%
% inhibition ([8]; BEN 12.5 mM alone): 39%

CO/N=C(\C(=O)N[C@@H]1C(=O)N2C(C(=O)O)=C(CSC(=O)c3ccco3)CS[C@H]12)c1csc(N)n1 [Ceftiofur]
MIC [1, 9]: 0.5 µg/mL
MIC [2, 10]: 1 µg/mL
MIC [3, 11]: 2 µg/mL
MIC [4, 12]: 0.5 µg/mL

O=C(O)CC(O)(CC(=O)O)C(=O)O [Citric acid, citric acid]
MIC [1, 9]: 50 mM
MIC [2, 10]: > 100 mM
MIC [3, 11]: > 100 mM
MIC [4, 12]: 25 mM
% inhibition ([5]; CIT 12.5 mM alone): 18%
% inhibition ([5]; CIT 25 mM alone): 36%
% inhibition ([8]; CIT 6.25 mM alone): 12%
% inhibition ([8]; CIT 12.5 mM alone): 43%

C[C@H]1c2cccc(O)c2C(=O)C2=C(O)[C@]3(O)C(=O)C(C(N)=O)=C(O)[C@@H](N(C)C)[C@@H]3[C@@H](O)[C@@H]21 [Doxycycline]
MIC [1, 9]: 16 µg/mL
MIC [4, 12]: 0.5 µg/mL

CCN1CCN(c2cc3c(cc2F)c(=O)c(C(=O)O)cn3C2CC2)CC1 [Enrofloxacin]
MIC [1, 9]: 0.5 µg/mL
MIC [2, 10]: 2 µg/mL
MIC [3, 11]: 2 µg/mL
MIC [4, 12]: 0.5 µg/mL

C=CCc1ccc(O)c(OC)c1 [Eugenolo, eugenol]
MIC [1, 9]: 3.75 mM
MIC [2, 10]: 3.75 mM
MIC [3, 11]: 3.75 mM
MIC [4, 12]: 3.75 mM
% inhibition ([5]; EUG 0.94 mM alone): 6%
% inhibition ([5]; EUG 1.87 mM alone): 27%
% inhibition ([6]; EUG 0.94 mM alone): 31%
% inhibition ([6]; EUG 1.87 mM alone): 44%
% inhibition ([7]; EUG 0.94 mM alone): 26%
% inhibition ([7]; EUG 1.87 mM alone): 34%
% inhibition ([8]; EUG 0.94 mM alone): 9%
% inhibition ([8]; EUG 1.87 mM alone): 12%

CS(=O)(=O)c1ccc([C@@H](O)[C@@H](CF)NC(=O)C(Cl)Cl)cc1 [Florfenicol]
MIC [1, 9]: 2 µg/mL
MIC [2, 10]: 16 µg/mL
MIC [3, 11]: > 64 µg/mL
MIC [4, 12]: 2 µg/mL

CCCCCC(=O)O [Hexanoic acid, hexanoic acid]
MIC [2, 13]: 50 mM
MIC ([3]; K8897, read-out: MIC values): 50 mM
% inhibition ([6]; HEX 12.5 mM alone): 76%
% inhibition ([6]; HEX 25 mM alone): 83%
% inhibition ([7]; HEX 12.5 mM alone): 65%
% inhibition ([7]; HEX 25 mM alone): 83%

C/C=C/C=C/C(=O)O [Sorbic Acid, sorbic acid]
MIC [1, 9]: 100 mM
MIC [2, 10]: 50 mM
MIC [3, 11]: 50 mM
MIC [4, 12]: 50 mM
% inhibition ([5]; SOR 25 mM alone): 30%
% inhibition ([5]; SOR 50 mM alone): 56%
% inhibition ([6]; SOR 12.5 mM alone): 69%
% inhibition ([6]; SOR 25 mM alone): 85%
% inhibition ([7]; SOR 12.5 mM alone): 79%
% inhibition ([7]; SOR 25 mM alone): 93%
% inhibition ([8]; SOR 12.5 mM alone): 26%
% inhibition ([8]; SOR 25 mM alone): 38%

Cc1cc(NS(=O)(=O)c2ccc(N)cc2)no1 [Sulfamethoxazole]
MIC [2, 10]: > 608 µg/mL
MIC [3, 11]: > 608 µg/mL

CN(C)[C@@H]1C(O)=C(C(N)=O)C(=O)[C@@]2(O)C(O)=C3C(=O)c4c(O)cccc4[C@@](C)(O)[C@H]3C[C@@H]12 [Tetracycline, tetracycline, reference compound]
MIC [1, 9]: 64 µg/mL
MIC [2, 10]: > 64 µg/mL
MIC [3, 11]: > 64 µg/mL
MIC [4, 12]: 2 µg/mL
% inhibition ([5]; TET 16 ppm alone): 11%
% inhibition ([5]; TET 32 ppm alone): 28%
% inhibition ([8]; TET 0.5 ppm alone): 20%
% inhibition ([8]; TET 1 ppm alone): 27%

C=C[C@]1(C)C[C@@H](OC(=O)CSCCN(CC)CC)[C@]2(C)[C@H](C)CC[C@]3(CCC(=O)[C@H]32)[C@@H](C)[C@@H]1O [Tiamulin]
MIC [1, 9]: 4 µg/mL
MIC [4, 12]: 1 µg/mL

COc1cc(Cc2cnc(N)nc2N)cc(OC)c1OC [Trimethoprim]
MIC [2, 10]: > 32 µg/mL
MIC [3, 11]: > 32 µg/mL

CC[C@H]1OC(=O)C[C@@H](O)[C@H](C)[C@@H](O[C@@H]2O[C@H](C)[C@@H](O[C@H]3C[C@@](C)(O)[C@@H](O)[C@H](C)O3)[C@H](N(C)C)[C@H]2O)[C@@H](CC=O)C[C@@H](C)C(=O)/C=C/C(C)=C/[C@@H]1CO[C@@H]1O[C@H](C)[C@@H](O)[C@@H](OC)[C@H]1OC [Tylosin]
MIC [1, 9]: 2 µg/mL
MIC [4, 12]: > 64 µg/mL

Penicillin
MIC values ([1]; S. suis 701): 0.13 ppm
MIC values ([4]; S. suis 702): 0.13 ppm

colistin [reference compound]
MIC values ([2]; E. coli 95): 32 ppm
MIC values ([3]; E. coli 97): 32 ppm
% inhibition ([6]; COL 4 ppm alone): 3%
% inhibition ([6]; COL 8 ppm alone): 8%
% inhibition ([6]; COL 16 ppm alone): 40%
% inhibition ([7]; COL 4 ppm alone): 10%
% inhibition ([7]; COL 8 ppm alone): 12%
% inhibition ([7]; COL 16 ppm alone): 29%

neomycin [reference compound]
MIC values ([1]; S. suis 701): 8 ppm
MIC values ([2]; E. coli 95): >64 ppm
MIC values ([3]; E. coli 97): >64 ppm
MIC values ([4]; S. suis 702): 16 ppm
% inhibition ([5]; NEO 2 ppm alone): 6%
% inhibition ([5]; NEO 4 ppm alone): 15%
% inhibition ([8]; NEO 4 ppm alone): 10%
% inhibition ([8]; NEO 8 ppm alone): 16%
